Laboratory results: patent US9067894B1, “Compound, composition, and method of activating GIRK potassium channel and use of same for treating conditions of interest” (Vanderbilt University, priority 2013, dated 2015)
Entries after “also recorded” stand apart in the source; their conditions may differ.

What was measured:
[1] = target: T1, Serotonin 5-HT2B (Homo sapiens, UniProt P41595); test: Radioligand displacement (Ricerca); format: binding
T1 construct: Ricerca (contract panel)

[2] = target: T2, Histamine H1 (Homo sapiens, UniProt P35367); test: Radioligand displacement (Ricerca); format: binding
T2 construct: Ricerca

[3] = tested on: Glutamate (NMDA, PCP); test: Radioligand displacement (Ricerca); format: binding, rat; settings: 10 μM
[4] = target: T3, Muscarinic M1 (Homo sapiens, UniProt P11229); test: Radioligand displacement (Ricerca); format: binding
T3 construct: Ricerca (contract laboratory that ran the panel)

[5] = tested on: L-Type Ca channel (benzothiazepine); test: Radioligand displacement (Ricerca); format: binding, rat; settings: 10 μM
[6] = target: T4, Opiate (DOP) (Homo sapiens, UniProt P41143); test: Radioligand displacement (Ricerca); format: binding
T4 construct: Ricerca (contract laboratory that ran the panel)

[7] = target: T5, Neuropeptide Y (Y1 ) (Homo sapiens, UniProt P25929); test: Radioligand displacement (Ricerca); format: binding
T5 construct: Ricerca (contract laboratory that ran the panel)

[8] = target: T6, Dopamine D1 (Homo sapiens, UniProt P21728); test: Radioligand displacement (Ricerca); format: binding
T6 construct: Ricerca

[9] = target: T7, Transporter, GABA (Rattus norvegicus, UniProt P23978); test: Radioligand displacement (Ricerca); format: binding
T7 construct: Ricerca (contract panel)

[10] = target: T8, Prostanoid EP4 (Homo sapiens, UniProt P35408); test: Radioligand displacement (Ricerca); format: binding
T8 construct: Ricerca (contract laboratory that ran the panel)

[11] = target: T9, GABAA receptors (α1, β2, γ2 subunit combination) (Homo sapiens, UniProt P14867+P18507+P47870); test: Whole-cell voltage-clamp on GABAA receptors transiently transfected in HEK-293 cells; format: cell-based; settings: activation or potentiation of GABA-evoked currents
T9 construct: expressed in transfected cells; host or cells: HEK-293 (transient)
Experimental: A single-cell suspension of HEK-293 cells stably transfected with the appropriate ion channels were plated into TC-treated 35 mm polystyrene dishes at ˜15% confluence and incubated overnight in a 5% CO2 cell culture incubator at 37° C. Whole-cell patch-clamp recordings were performed 24-72 h after plating. Borosilicate glass electrodes ([…] resistance) were filled with Intracellular Solution (130 mM KCl, 20 mM NaCl, 5 mM EGTA, 5.46 mM MgCl2, and 10 mM HEPES, pH 7.4). Whole cell currents were recorded in 20K extracellular solution at −70 mV using a Pico 1 amplifier (Tecella, Foothill Ranch, Calif.) controlled by WINWCP 4.X (University of Strathclyde, Glasgow, Scotland, UK). Signals were compensated for electrode capacitance, cellular capacitance and series resistance. Signals were filtered at 1 kHz, and digitized at 5 kHz. Solutions were applied to the cell with a Valvelink 8.2 (Automate Scientific, Berkeley, Calif.) rapid, valve-controlled perfusion system with in-house-made local superfusion manifold. […] One day after transfection, cells were plate into 35 mm polystyrene dishes, incubated and recorded as described above. […]
Voltage-clamp data were analyzed by converting current amplitudes to current density by dividing by each cell's membrane capacitance estimated from capacitance compensation. […]

[12] = target: T10, Adenosine A2A (Homo sapiens, UniProt P29274); test: Radioligand displacement (Ricerca); format: binding
T10 construct: Ricerca (contract assay)

[13] = target: T11, Endothelin ETB (Homo sapiens, UniProt P24530); test: Radioligand displacement (Ricerca); format: binding
T11 construct: Ricerca

[14] = target: T12, hERG (Homo sapiens, UniProt Q12809); test: Radioligand displacement (Ricerca); format: binding
T12 construct: Ricerca (contract laboratory that ran the panel)

[15] = target: T13, Adrenergic β2 (Homo sapiens, UniProt P07550); test: Radioligand displacement (Ricerca); format: binding
T13 construct: Ricerca

[16] = tested on: Nicotinic acetylcholine; test: Radioligand displacement (Ricerca), second nicotinic entry; format: binding, human; settings: 10 μM; second Nicotinic acetylcholine line
[17] = Plasma protein binding, equilibrium dialysis; format: in vitro ADME, mouse; settings: murine plasma
Experimental: Plasma Protein Binding. […] Briefly plasma (220 μL) was added to the 96-well plate containing test article (5 μL) and mixed thoroughly. Subsequently, 200 μl of the plasma-test article mixture was transferred to the cis chamber (red) of the RED plate, with an accompanying 350 μL of phosphate buffer (25 mM, pH 7.4) in the trans chamber. The RED plate was sealed and incubated 4 h at 37° C. with shaking. At completion, 50 μL aliquots from each chamber were diluted 1:1 (50 μL) with either plasma (cis) or buffer (trans) and transferred to a new 96-well plate, at which time ice-cold acetonitrile (2 volumes) was added to extract the matrices. The plate was centrifuged (3000 rcf, 10 min) and supernatant solutions transferred to a new 96-well plate. The sealed plate was stored at −20° C. until LC/MS/MS analysis.
Liquid Chromatography/Mass Spectrometry Analysis. In vitro experiments. VU0456810 was analyzed on a Thermo Electron TSQ Quantum Ultra triple quad mass spectrometer (San Jose, Calif.) via electrospray ionization (ESI) with two Themo Electron Accella pumps (San Jose, Calif.), and a Leap Technologies CTC PAL autosampler (Carrboro, N.C.). Analytes were separated by gradient elution on a dual column system with two Thermo Hypersil Gold (2.1×30 mm, 1.9 μm) columns (San Jose, Calif.) at 40° C. HPLC mobile phase A was 0.1% formic acid in water and mobile phase B was 0.1% formic acid in acetonitrile. […]

[18] = target: T14, EGF (Homo sapiens, UniProt P00533); test: Radioligand displacement (Ricerca); format: binding
T14 construct: Ricerca

[19] = target: T15, Adrenergic α1D (Homo sapiens, UniProt P25100); test: Radioligand displacement (Ricerca); format: binding
T15 construct: Ricerca (contract assay)

[20] = target: T16, N-Type Ca channel (Rattus norvegicus, UniProt Q02294); test: Radioligand displacement (Ricerca); format: binding
T16 construct: Ricerca

[21] = target: T17, Transporter, DAT (Homo sapiens, UniProt Q01959); test: Radioligand displacement (Ricerca); format: binding
T17 construct: Ricerca (contract panel)
T17 sequence (Q01959 whole entry): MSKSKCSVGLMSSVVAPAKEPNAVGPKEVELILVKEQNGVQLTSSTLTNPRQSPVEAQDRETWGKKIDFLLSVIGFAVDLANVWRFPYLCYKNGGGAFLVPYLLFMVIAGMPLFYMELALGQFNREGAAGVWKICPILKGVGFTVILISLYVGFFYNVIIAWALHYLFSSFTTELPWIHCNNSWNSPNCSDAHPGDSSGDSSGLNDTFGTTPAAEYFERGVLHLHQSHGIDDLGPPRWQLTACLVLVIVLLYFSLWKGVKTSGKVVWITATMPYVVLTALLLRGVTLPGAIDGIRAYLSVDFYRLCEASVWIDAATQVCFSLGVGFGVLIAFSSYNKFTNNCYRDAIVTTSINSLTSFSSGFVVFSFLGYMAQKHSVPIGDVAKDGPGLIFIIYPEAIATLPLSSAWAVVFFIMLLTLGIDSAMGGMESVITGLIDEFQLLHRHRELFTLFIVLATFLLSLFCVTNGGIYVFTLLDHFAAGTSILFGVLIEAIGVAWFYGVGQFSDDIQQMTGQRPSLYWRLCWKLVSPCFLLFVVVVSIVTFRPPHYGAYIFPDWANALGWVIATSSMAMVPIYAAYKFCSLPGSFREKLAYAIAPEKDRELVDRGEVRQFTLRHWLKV

T1 sequence (P41595 whole entry): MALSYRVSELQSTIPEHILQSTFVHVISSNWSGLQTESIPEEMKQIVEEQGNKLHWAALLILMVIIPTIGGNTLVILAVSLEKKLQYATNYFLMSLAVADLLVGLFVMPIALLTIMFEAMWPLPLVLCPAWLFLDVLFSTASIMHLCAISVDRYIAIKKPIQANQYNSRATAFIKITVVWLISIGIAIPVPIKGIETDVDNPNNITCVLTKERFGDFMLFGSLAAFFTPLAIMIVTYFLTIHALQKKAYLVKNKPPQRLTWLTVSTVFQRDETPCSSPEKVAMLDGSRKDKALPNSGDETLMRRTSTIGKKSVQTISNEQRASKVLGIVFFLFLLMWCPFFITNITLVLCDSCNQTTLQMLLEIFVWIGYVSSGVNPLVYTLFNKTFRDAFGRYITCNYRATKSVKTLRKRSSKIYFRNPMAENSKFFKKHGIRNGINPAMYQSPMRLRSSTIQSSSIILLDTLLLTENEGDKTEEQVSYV
T9 sequence (P14867 28-456): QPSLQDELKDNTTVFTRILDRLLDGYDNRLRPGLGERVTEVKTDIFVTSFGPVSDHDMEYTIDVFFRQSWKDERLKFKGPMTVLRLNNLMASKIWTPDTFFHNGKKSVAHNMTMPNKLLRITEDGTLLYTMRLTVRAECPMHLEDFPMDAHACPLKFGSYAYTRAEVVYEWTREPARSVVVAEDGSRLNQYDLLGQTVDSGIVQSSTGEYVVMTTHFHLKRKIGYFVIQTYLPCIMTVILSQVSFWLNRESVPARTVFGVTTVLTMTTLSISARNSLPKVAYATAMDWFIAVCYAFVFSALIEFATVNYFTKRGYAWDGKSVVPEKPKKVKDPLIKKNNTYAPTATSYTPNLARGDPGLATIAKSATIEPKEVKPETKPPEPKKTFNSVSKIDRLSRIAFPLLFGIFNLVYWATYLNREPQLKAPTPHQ
T9 sequence (P47870 25-512 limits assumed): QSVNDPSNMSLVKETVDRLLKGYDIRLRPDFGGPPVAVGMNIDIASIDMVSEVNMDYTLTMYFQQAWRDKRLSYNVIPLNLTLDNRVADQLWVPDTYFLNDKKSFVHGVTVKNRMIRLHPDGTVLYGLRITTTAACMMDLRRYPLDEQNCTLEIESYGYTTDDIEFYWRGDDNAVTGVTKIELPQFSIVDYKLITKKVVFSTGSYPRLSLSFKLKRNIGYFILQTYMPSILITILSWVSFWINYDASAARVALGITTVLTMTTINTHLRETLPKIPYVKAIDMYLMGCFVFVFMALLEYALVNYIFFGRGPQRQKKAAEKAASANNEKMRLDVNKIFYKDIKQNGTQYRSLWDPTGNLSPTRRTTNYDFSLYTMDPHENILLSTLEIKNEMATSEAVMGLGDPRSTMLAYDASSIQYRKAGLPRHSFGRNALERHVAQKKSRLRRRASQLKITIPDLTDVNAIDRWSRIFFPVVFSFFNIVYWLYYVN
T9 sequence (P18507 40-475): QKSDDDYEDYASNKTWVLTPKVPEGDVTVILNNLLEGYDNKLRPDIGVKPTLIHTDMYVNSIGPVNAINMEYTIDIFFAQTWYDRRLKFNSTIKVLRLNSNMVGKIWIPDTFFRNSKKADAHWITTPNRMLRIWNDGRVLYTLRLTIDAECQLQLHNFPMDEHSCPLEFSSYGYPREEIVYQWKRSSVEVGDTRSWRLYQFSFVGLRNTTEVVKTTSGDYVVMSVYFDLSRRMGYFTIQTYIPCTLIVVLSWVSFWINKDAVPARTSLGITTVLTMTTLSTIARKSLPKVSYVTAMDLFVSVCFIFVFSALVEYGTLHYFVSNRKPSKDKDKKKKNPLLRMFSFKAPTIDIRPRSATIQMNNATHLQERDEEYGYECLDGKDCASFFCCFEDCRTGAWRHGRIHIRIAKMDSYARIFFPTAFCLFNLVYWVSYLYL
T4 sequence (P41143 whole entry): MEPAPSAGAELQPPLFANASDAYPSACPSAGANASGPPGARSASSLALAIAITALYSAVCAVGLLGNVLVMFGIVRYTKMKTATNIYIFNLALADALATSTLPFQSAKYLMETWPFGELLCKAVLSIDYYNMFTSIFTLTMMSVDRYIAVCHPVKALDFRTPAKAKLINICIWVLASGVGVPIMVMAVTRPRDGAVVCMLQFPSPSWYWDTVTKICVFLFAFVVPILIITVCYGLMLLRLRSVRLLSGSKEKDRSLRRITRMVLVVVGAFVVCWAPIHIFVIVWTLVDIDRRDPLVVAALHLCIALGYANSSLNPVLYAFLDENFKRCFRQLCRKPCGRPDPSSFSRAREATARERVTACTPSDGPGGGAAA
T13 sequence (P07550 whole entry): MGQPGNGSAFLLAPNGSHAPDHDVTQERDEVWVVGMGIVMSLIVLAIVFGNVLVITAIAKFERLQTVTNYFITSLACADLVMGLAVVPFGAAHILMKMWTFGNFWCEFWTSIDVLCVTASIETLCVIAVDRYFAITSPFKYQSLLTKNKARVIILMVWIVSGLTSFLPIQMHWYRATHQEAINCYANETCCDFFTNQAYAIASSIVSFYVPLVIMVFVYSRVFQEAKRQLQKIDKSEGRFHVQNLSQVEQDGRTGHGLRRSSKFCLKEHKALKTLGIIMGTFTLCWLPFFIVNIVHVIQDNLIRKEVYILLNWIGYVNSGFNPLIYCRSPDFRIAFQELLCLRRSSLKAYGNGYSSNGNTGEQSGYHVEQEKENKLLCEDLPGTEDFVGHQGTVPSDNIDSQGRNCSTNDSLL
T10 sequence (P29274 whole entry): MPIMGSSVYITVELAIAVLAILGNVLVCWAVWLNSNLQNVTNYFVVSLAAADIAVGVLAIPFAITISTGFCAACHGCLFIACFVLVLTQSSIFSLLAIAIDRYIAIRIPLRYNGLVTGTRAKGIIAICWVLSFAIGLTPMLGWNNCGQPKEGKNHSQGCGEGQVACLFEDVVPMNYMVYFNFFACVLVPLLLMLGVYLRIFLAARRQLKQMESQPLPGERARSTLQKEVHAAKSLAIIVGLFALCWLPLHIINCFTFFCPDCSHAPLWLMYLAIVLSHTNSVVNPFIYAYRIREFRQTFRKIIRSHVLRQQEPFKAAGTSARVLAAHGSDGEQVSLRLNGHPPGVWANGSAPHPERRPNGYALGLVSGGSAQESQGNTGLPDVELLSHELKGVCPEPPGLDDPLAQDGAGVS
T2 sequence (P35367 whole entry): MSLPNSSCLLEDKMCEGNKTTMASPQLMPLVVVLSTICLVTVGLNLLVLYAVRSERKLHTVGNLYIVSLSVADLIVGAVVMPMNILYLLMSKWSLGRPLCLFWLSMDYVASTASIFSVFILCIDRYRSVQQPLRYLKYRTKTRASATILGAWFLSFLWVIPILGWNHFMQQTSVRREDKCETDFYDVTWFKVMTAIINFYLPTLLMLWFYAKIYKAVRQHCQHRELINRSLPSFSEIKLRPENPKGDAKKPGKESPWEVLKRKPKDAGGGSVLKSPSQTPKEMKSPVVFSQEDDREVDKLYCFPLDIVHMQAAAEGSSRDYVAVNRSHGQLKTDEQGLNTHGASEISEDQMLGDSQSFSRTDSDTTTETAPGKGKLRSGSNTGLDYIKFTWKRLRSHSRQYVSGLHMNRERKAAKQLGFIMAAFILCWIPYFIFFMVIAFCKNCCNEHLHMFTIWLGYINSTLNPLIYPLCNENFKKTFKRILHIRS
T5 sequence (P25929 whole entry): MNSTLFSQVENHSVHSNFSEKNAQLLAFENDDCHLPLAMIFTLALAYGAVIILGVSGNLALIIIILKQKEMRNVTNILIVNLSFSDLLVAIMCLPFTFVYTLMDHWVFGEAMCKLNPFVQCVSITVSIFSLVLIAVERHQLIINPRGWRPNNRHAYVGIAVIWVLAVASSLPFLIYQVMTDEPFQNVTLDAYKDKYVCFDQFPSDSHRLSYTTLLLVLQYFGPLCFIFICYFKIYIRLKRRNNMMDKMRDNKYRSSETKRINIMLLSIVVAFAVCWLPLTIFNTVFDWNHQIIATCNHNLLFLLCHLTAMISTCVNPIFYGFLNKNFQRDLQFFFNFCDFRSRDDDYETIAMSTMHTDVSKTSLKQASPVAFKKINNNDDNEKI
T11 sequence (P24530 27-442): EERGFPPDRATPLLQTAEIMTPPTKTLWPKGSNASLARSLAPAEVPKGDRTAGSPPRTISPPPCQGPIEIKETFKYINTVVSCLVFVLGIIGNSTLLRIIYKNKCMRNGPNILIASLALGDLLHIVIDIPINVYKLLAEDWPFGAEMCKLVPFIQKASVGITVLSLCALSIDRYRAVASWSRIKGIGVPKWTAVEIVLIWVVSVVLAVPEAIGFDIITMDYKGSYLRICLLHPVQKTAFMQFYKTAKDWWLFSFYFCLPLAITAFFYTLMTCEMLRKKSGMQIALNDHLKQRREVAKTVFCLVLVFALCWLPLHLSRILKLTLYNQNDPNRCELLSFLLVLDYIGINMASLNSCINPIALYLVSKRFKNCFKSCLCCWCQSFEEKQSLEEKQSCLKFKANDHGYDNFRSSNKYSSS

Cc1cc(NC(=O)Nc2ccc(F)c(F)c2)n(-c2ccccc2)n1 [VU0456810, 1-(3,4-difluorophenyl)-3-(3-methyl-1-phenyl-1H-pyrazol-5-yl)urea]
inhibition at 10 µM [1]: < 50%
% Inhibition ([1]; 10 μM): 46%
inhibition at 10 µM [2]: -7%
% Inhibition [3]: 1%
inhibition at 10 µM [4]: 0%
% Inhibition [5]: 1%
inhibition at 10 µM [6]: -4%
inhibition at 10 µM [7]: 24%
inhibition at 10 µM [8]: -5%
inhibition at 10 µM [9]: 5%
inhibition at 10 µM [10]: -4%
Potency [11]: failed to show any activation or potentiation; also recorded: Inactive
inhibition at 10 µM [12]: 12%
inhibition at 10 µM [13]: 3%
inhibition at 10 µM [14]: 10%
inhibition at 10 µM [15]: -5%
% Inhibition [16]: 7%
Plasma Protein Binding [17]: 3 % fu
inhibition at 10 µM [18]: -2%
inhibition at 10 µM [19]: -3%
inhibition at 10 µM [20]: 5%
inhibition at 10 µM [21]: 12%
